The values that follow come from patent US6559142B2, “Sulfonamide matrix metalloproteinase inhibitors” (Warner-Lambert Company, priority 2001, dated 2003).

The structures appear in SMILES notation.

A word on the IC50: it is the point on the concentration scale where inhibition reaches its midpoint.

Common to all, as to type: biochemical
For test [1], the target named is T1, MMP-1FL (full-length interstitial collagenase) (Homo sapiens, UniProt P03956).
T1 sequence (P03956 100-469): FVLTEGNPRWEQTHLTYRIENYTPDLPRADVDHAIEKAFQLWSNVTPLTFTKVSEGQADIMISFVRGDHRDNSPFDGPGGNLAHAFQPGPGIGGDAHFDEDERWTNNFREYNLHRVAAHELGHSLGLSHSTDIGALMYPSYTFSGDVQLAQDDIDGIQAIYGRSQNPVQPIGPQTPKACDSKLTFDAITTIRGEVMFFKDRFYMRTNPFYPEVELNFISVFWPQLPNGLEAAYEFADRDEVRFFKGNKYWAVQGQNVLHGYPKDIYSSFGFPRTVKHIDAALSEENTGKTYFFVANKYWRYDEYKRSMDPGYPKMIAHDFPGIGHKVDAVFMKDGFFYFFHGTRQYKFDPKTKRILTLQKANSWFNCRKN
Nature of the test: Thiopeptolide hydrolysis inhibition assay, MMP-1FL. Conditions: thiopeptolide substrate, HEPES pH 7.0, 22° C. From the text: (§1) The assays measure the amount by which a test compound reduces the hydrolysis of a thiopeptolide substrate catalyzed by a matrix metalloproteinase enzyme. Such assays are described in detail by Ye et al., Biochemistry, 1992;31(45):11231-11235, hereby incorporated herein by reference.
(§2) Thiopeptolide substrates show virtually no decomposition or hydrolysis at or below neutral pH in the absence of a matrix metalloproteinase enzyme. A typical thiopeptolide substrate commonly utilized for assays is Ac-Pro-Leu-Gly-thioester-Leu-Leu-Gly-OEt. A 100 μL assay mixture will contain 50 mM of N-2-hydroxyethylpiperazine-N′-2-ethanesulfonic acid buffer (“HEPES”) at pH 7.0, 10 mM CaCl2, 100 μM thiopeptolide substrate, and 1 mM 5,5′-dithio-bis-(2-nitrobenzoic acid) (DTNB). The thiopeptolide substrate concentration may be varied from, for example, 10 to 800 μM, in order to obtain Km and Kcat values. The change in absorbance at 405 nm is monitored on a Thermo Max microplate reader (Molecular Devices, Menlo Park, Calif.) at room temperature (22° C.). The calculation of the amount of hydrolysis of the thiopeptolide substrate is based on E412=13600 M^−1 cm^−1 for the DTNB-derived product 3-carboxy-4-nitrothiophenoxide. Assays are carried out with and without matrix metalloproteinase inhibitor compounds, and the amount of hydrolysis is compared for a determination of inhibitory activity of the test compounds.
(§3) Several representative compounds have been evaluated for their ability to inhibit various matrix metalloproteinase enzymes. In Table 1, MMP-1FL refers to full-length interstitial collagenase; MMP-2FL refers to full-length Gelatinase A; MMP-3CD refers to the catalytic domain of stromelysin-1; MMP-7FL refers to full-length matrilysin; MMP-9FL refers to full-length Gelatinase B; MMP-13CD refers to the catalytic domain of collagenase 3; and MMP-14CD refers to the catalytic domain of MMP-14. Test compounds were evaluated at various concentrations, in order to determine their respective IC50 values, the micromolar concentration of compound required to cause a 50% inhibition of the catalytic activity of the respective enzyme.

For test [2], the target named is T2, MMP-2FL (full-length Gelatinase A) (Homo sapiens, UniProt P08253).
T2 sequence (P08253 110-660): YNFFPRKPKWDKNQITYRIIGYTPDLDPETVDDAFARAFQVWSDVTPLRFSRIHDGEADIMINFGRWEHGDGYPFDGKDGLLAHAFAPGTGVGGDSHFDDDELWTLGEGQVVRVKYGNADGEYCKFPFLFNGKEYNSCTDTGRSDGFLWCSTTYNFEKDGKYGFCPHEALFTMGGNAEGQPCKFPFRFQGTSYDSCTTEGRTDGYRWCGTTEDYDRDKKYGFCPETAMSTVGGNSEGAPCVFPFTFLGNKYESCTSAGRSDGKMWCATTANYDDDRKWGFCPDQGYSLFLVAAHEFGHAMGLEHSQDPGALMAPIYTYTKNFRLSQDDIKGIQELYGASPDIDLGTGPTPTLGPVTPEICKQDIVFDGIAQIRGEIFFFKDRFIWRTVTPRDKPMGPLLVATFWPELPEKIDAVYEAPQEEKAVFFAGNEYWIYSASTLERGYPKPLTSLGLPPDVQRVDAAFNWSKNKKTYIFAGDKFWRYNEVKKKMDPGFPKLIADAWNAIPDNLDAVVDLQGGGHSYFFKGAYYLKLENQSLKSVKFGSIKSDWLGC
Kind of test: Thiopeptolide hydrolysis inhibition assay, MMP-2FL. Conditions: thiopeptolide substrate, HEPES pH 7.0, 22° C.
From the text: as §1, §2, §3

For test [3], the target named is MMP-14CD (catalytic domain of MMP-14) (Homo sapiens, UniProt P50281). Nature of the test: Thiopeptolide hydrolysis inhibition assay, MMP-14CD. Conditions: thiopeptolide substrate, HEPES pH 7.0, 22° C.
From the text: as §1, §2, §3

Test [4] deals with MMP-13CD (catalytic domain of collagenase 3) (Homo sapiens, UniProt P45452). Kind of test: Thiopeptolide hydrolysis inhibition assay, MMP-13CD. Conditions: thiopeptolide substrate, HEPES pH 7.0, 22° C.
From the text: as §1, §2, §3

Test [5] addresses MMP-3CD (catalytic domain of stromelysin-1) (Homo sapiens, UniProt P08254). Nature of the test: Thiopeptolide hydrolysis inhibition assay, MMP-3CD. Conditions: thiopeptolide substrate, MES buffer pH 6.0.
From the text: as §1, §2
It should be appreciated that the assay buffer used with MMP-3CD is 50 mM of N-morpholinoethanesulfonate (“MES”) at pH 6.0 rather than the HEPES buffer at pH 7.0 described above.
as §3

The target in test [6] is MMP-9FL (full-length Gelatinase B) (Homo sapiens, UniProt P14780). Kind of test: Thiopeptolide hydrolysis inhibition assay, MMP-9FL. Conditions: thiopeptolide substrate, HEPES pH 7.0, 22° C.
Sequence of MMP-9FL (full-length Gelatinase B) (P14780 94-707, species assumed): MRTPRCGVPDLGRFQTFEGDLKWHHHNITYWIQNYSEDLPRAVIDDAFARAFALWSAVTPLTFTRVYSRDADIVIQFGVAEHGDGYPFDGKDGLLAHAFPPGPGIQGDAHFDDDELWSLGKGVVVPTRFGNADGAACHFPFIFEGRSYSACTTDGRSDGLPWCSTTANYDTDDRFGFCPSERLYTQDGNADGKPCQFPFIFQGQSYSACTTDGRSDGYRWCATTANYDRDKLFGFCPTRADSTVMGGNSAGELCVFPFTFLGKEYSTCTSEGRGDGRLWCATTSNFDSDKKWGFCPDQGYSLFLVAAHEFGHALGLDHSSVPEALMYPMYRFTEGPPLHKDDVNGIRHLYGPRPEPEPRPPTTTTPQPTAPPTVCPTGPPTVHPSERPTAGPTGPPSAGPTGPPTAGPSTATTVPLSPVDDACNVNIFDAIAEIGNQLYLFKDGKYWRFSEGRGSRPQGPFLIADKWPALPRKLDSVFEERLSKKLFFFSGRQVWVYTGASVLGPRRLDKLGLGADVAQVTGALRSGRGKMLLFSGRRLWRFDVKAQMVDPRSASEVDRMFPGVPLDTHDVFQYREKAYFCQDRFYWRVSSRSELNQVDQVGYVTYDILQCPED
From the text: as §1, §2, §3

The target in test [7] is T3, MMP-7FL (full-length matrilysin) (Homo sapiens, UniProt P09237).
T3 sequence (P09237 95-267): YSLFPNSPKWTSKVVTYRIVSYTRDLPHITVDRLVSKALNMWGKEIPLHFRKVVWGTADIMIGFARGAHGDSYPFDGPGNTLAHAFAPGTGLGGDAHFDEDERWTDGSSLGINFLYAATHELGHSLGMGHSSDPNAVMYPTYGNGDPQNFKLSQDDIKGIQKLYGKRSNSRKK
Nature of the test: Thiopeptolide hydrolysis inhibition assay, MMP-7FL. Conditions: thiopeptolide substrate, HEPES pH 7.0, 22° C.
From the text: as §1, §2, §3

Sequence of MMP-3CD (catalytic domain of stromelysin-1) (P08254 100-272 limits assumed): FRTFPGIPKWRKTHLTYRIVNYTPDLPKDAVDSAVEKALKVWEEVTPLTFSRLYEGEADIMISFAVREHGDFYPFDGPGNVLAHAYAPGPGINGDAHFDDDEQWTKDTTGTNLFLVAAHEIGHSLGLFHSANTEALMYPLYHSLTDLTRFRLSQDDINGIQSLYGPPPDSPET

With `CC1(C)SCN(S(=O)(=O)c2ccc3c(c2)oc2ccccc23)[C@@H]1C(=O)NO` [Example 4, R-3-(Dibenzofuran-3-sulfonyl)-5,5-dimethyl-thiazolidine-4-carboxylic Acid Hydroxyamide], the IC50 in test [1] amounted to 6900 nM; in test [2] it was 3900 nM; in test [3] it was 11000 nM; in test [4] it was 1400 nM; in test [5], 3200 nM; in test [6], 18000 nM. Half-maximal inhibition in test [7] (IC50) was put at 59000 nM.
Consider `CC1(C)SCCN(S(=O)(=O)c2ccc3oc4ccccc4c3c2)[C@H]1C(=O)NO` [Example 8, (S)-4-(Dibenzofuran-2-sulfonyl)-2,2-dimethyl-thiomorpholine-3-carboxylic Acid Hydroxyamide], for which the concentration for half-maximal inhibition (IC50) in test [1] was determined as 17 nM; in test [2], 15 nM; in test [3], 40 nM; in test [4], 3 nM; in test [5], 9 nM; in test [6], 260 nM. The molecule further had an IC50 in test [7] of 28 nM.
For the molecule `CC1(C)[C@H](C(=O)NO)N(S(=O)(=O)c2ccc3oc4ccccc4c3c2)CCS1(=O)=O` [Example 15, (S)-4-(Dibenzofuran-2-sulfonyl)-2,2-dimethyl-1,1-dioxo-thiomorpholine-3-carboxylic Acid Hydroxyamide], the IC50 came to 33 nM in test [1]; 250 nM in test [2]; 98 nM in test [3]; 13 nM in test [4]; 8 nM in test [5]; 1800 nM in test [6]. Further, it took 32 nM to reach half-maximal inhibition in test [7] (IC50).
Regarding `CC1(C)SCCN(S(=O)(=O)c2ccc3oc4cc(Br)ccc4c3c2)[C@H]1C(=O)NO` [Example 10, (S)-4-(7-Bromo-dibenzofuran-2-sulfonyl)-2,2-dimethyl-thiomorpholine-3-carboxylic Acid Hydroxyamide], the 50% inhibitory concentration (IC50) in test [1] turned out to be 42 nM; in test [2], 7 nM; in test [3], 12 nM; in test [4], 2 nM; in test [5], 4 nM; in test [6], 66 nM. The molecule also gave a concentration for half-maximal inhibition (IC50) in test [7] of 31 nM.
In the case of `CC1(C)SCCN(S(=O)(=O)c2ccc3c(c2)oc2ccccc23)[C@H]1C(=O)O` [Example 1, (S)-4-(Dibenzofuran-3-sulfonyl)-2,2-dimethyl-thiomorpholine-3-carboxylic Acid], the IC50 in test [1] came to 1420 nM; in test [2], 74 nM; in test [3], 64 nM; in test [4] it was 970 nM; in test [5] it was 41 nM; in test [6] it was 22500 nM. The molecule further showed an IC50 in test [7] of 55000 nM.
Turning to `CC1(C)SCCN(S(=O)(=O)c2ccc3c(c2)Cc2ccccc2-3)[C@H]1C(=O)O` [Example 5, (S)-4-(9H-Fluorene-2-sulfonyl)-2,2-dimethyl-thiomorpholine-3-carboxylic Acid], the IC50 in test [1] was determined as 23000 nM; in test [2], 500 nM; in test [3], 840 nM; in test [4] it was 5100 nM; in test [5], 130 nM; in test [6], 100000 nM. In addition, in test [7], the midpoint of inhibition, the IC50, lay at 100000 nM.
In the case of `COC(=O)c1ccc2c(c1)oc1ccc(S(=O)(=O)N3CCSC(C)(C)[C@@H]3C(=O)O)cc12` [Example 11, (S)-4-(7-Methoxycarbonyl-dibenzofuran-2-sulfonyl)-2,2-dimethyl-thiomorpholine-3-carboxylic Acid], the IC50 in test [1] was determined as 100000 nM; in test [2], 5200 nM; in test [3] it was 20000 nM; in test [4] it was 4600 nM; in test [5] it was 94 nM; in test [6], 69000 nM. In addition, half-maximal inhibition in test [7] (IC50) was put at 3500 nM.
`CC1(C)SCCN(S(=O)(=O)c2ccc3oc4cc([N+](=O)[O-])ccc4c3c2)[C@H]1C(=O)O` [Example 13, (S)-2,2-Dimethyl-4-(7-nitro-dibenzofuran-2-sulfonyl)-thiomorpholine-3-carboxylic Acid]: the IC50 in test [1] came out at 60000 nM; in test [2], 33000 nM; in test [3], 15000 nM; in test [4] it was 2700 nM; in test [5] it was 1000 nM; in test [6] it was 100000 nM. For the same molecule, the half-inhibitory concentration (IC50) in test [7] was 1600 nM.
For `CC1(C)SCCN(S(=O)(=O)c2ccc3oc4ccccc4c3c2)[C@H]1C(=O)O` [Example 7, (S)-4-(Dibenzofuran-2-sulfonyl)-2,2-dimethyl-thiomorpholine-3-carboxylic Acid], the half-inhibitory concentration (IC50) in test [1] worked out at 59000 nM; in test [2], 3900 nM; in test [3], 4000 nM; in test [4] it was 11000 nM; in test [5], 210 nM; in test [6] it was 100000 nM. For the same molecule, it took 16000 nM to reach half-maximal inhibition in test [7] (IC50).
Regarding `COC(=O)c1ccc2c(c1)oc1ccc(S(=O)(=O)N3CCSC(C)(C)[C@@H]3C(=O)NO)cc12` [Example 12, (S)-4-(7-Methoxycarbonyl-dibenzofuran-2-sulfonyl)-2,2-dimethyl-thiomorpholine-3-carboxylic Acid Hydroxyamide], the IC50 worked out at 150 nM in test [1]; 17 nM in test [2]; 95 nM in test [3]; 5 nM in test [4]; 6 nM in test [5]; 47 nM in test [6]. This molecule also yielded an IC50 in test [7] of 29 nM.
In the case of `CC1(C)SCCN(S(=O)(=O)c2ccc3oc4cc(Br)ccc4c3c2)[C@H]1C(=O)O` [Example 9, (S)-4-(7-Bromo-dibenzofuran-2-sulfonyl)-2,2-dimethyl-thiomorpholine-3-carboxylic Acid], the IC50 worked out at 70000 nM in test [1]; 4000 nM in test [2]; 3800 nM in test [3]; 920 nM in test [4]; 20 nM in test [5]; 65000 nM in test [6]. This molecule also came in with a 50% inhibitory concentration (IC50) in test [7] of 1200 nM.
With `CC1(C)SCCN(S(=O)(=O)c2ccc3c(c2)oc2ccccc23)[C@H]1C(=O)NO` [Example 2, (S)-4-(Dibenzofuran-3-sulfonyl)-2,2-dimethyl-thiomorpholine-3-carboxylic Acid Hydroxyamide], the concentration for half-maximal inhibition (IC50) is 13 nM in test [1]; 15 nM in test [2]; 26 nM in test [3]; 4 nM in test [4]; 11 nM in test [5]; 210 nM in test [6]. The same molecule displayed an IC50 in test [7] of 200 nM.
